Reference: US8143254B2, “Methods for modulating ion channels” (Cornell Research Foundation, Inc., priority 2005, dated 2012)

Experiments:
[1] = tested on: oocytes; test: Toxicity / nonspecific leak in oocytes during dose-response recording; format: cell-based, Xenopus laevis
Experimental: Whole-cell two-electrode voltage-clamp (TEVC) recordings were performed on X laevis oocytes expressing cloned Kv2.1, Kv3.4 or Kv4.2 using a Warner OC-725C amplifier and pClamp9 (Axon Instruments, Foster City, Calif.) software. Oocytes were bathed in a small-volume Warner oocyte bath and viewed with a Fisher dissection microscope. Bath solution for whole-cell oocyte recordings was (in mM): 96 NaCl, 4 KCl, 0.7 MgCl2, 1 CaCl2, 10 HEPES (pH 7.4); whole-cell oocyte TEVC pipettes were of 0.2-2 M resistance when filled with 3 M KCl. Experiments were performed 24-48 hours after cRNA injection. For assessment of current-voltage relationships in the absence or presence of dabco derivatives, oocytes were held at −80 mV, stepped for 2 seconds at voltages between −80 mV and +60 mV in 20 mV steps (Kv2.1) or between −80 and +50 mV in 10 mV steps (Kv3.4), then held for 500 ms at −40 mV before returning to the holding potential. For assessment of block during wash-in of dabco derivatives at a single voltage, oocytes were held at −80 mV, and repetitively stepped to 0 mV for 2 s with an interpulse interval of 10 s or 60 s as indicated. […]

[2] = tested on: Kv3.4; test: TEVC of X. laevis oocytes expressing Kv3.4; format: cell-based; details: for mean inhibition at 0 mV relative to +50 mV: Kv3.4, voltage dependence of block
Excerpt: Kv2.1 mutants were constructed using the QuickChange Multi Site-Directed Mutagenesis Kit (Stratagene, La Jolla, Calif.). […] For oocyte expression, Kv3.4 was in pBF1, Kv4.2 was in pRAT. cRNA transcripts were produced from SacII-linearized (Kv2.1), Mlullinearized (Kv3.4) and Not1-linearized (Kv4.2) DNA templates using the T3 (Kv2.1), SP6 (Kv3.4) and T7 (Kv4.2) mMessage mMachine kits (Ambion, Austin, Tex.). cRNA was quantified by spectrophotometry and its size integrity verified by gel electophoresis. Defolliculated stage V and VI Xenopus laevis oocytes (purchased from Nasco, Grand Island, N.Y.) were injected with 5 ng of cRNA encoding Kv2.1, Kv3.4 or Kv4.2. Chinese Hamster Ovary (CHO) cells were transfected with 0.25 μg Kv2.1 cDNA, 2 μg blank plasmid and 2 μg Green fluorescent Protein in pBOB using Supetfect transfection reagent (Qiagen) 24 hours before whole-cell voltage clamp studies.
Oocytes were bathed in a small-volume Warner oocyte bath and viewed with a Fisher dissection microscope. Bath solution for whole-cell oocyte recordings was (in mM): 96 NaCl, 4 KCl, 0.7 MgCl2, 1 CaCl2, 10 HEPES (pH 7.4); whole-cell oocyte TEVC pipettes were of 0.2-2 M resistance when filled with 3 M KCl. Experiments were performed 24-48 hours after cRNA injection. For assessment of current-voltage relationships in the absence or presence of dabco derivatives, oocytes were held at −80 mV, stepped for 2 seconds at voltages between −80 mV and +60 mV in 20 mV steps (Kv2.1) or between −80 and +50 mV in 10 mV steps (Kv3.4), then held for 500 ms at −40 mV before returning to the holding potential. For assessment of block during wash-in of dabco derivatives at a single voltage, oocytes were held at −80 mV, and repetitively stepped to 0 mV for 2 s with an interpulse interval of 10 s or 60 s as indicated. A range of concentrations of dabco or dabco derivatives were washed in via the bath solution during repetitive single-voltage pulses (after an initial period of 5 pulses with control solution to ensure current stabilization) until equilibrium block was achieved, to establish dose-responses. […] Washout was performed after the highest concentration of blocker was washed in. In cases where washout was achieved, only those recordings in which current returned to within 10% of original current level were used for construction of dose-response curves. […] As controls for this protection analysis, JC638.2a or MTSET were washed in alone until equilibrium block, then washed out.
Data analysis: Current-voltage relationships were obtained by measuring peak current during depolarizing pulses. Inhibition constants for DABCO blockers were calculated after generating a dose response curve by fitting with a logistic dose-response function y=A2+[A1−A2/1+(x/x0)^p], where A1 is the maximum response plateau, A2 is the minimum response plateau, x is drug concentrator, x0 is the IC50, and p the Hill slope. Data analysis was performed using […] 9 (Axon Instruments, Foster City, Calif.) and tabulated in Excel 5.0. Graphs were generated using Origin 6.1. Data are expressed as mean±SEM, with n specifying the number of independent experiments. Statistical significance was assessed by one-way ANOVA with p<0.05 being indicative of significance.

Structure (SMILES): C(CCCC[N+]12CCN(CC1)CC2)CCC[N+]12CCN(CC1)CC2 [TG27, 1,8-[bis(4-aza-1-azoniabicyclo[2.2.2]octanyl)]octane]
- concentration at which nonspecific leak began ([1]; Kv3.4 dose response): above 1 mM

Structure (SMILES): CCCCCCCCCCCCCCCC[N+]12CCN(CC1)CC2 [TA279, 1-aza-4-azonia-4-hexadecylbicyclo[2.2.2]octane]
- inhibition of Kv3.4 ([2]; 1 μM): inhibiting
- inhibition of Kv3.4 ([2]; 5 mM): almost complete inhibition
- mean inhibition at 0 mV relative to +50 mV [2]: 1.5 fold
- sensitivity of Kv3.4 channels to compound relative to externally-applied TEA ([2]; externally applied): 500 fold

Structure (SMILES): C(CC[N+]12CCN(CC1)CC2)C[N+]12CCN(CC1)CC2 [TG26]
- toxicity to oocytes ([1]; doses required to produce >50% block): toxic to the oocytes

Structure (SMILES): CCCCCCCCCCCC[N+]12CCN(CC1)CC2 [JE188, 1-aza-4-azonia-4-dodecylbicyclo[2.2.2]octane]
- inhibition of Kv3.4 ([2]; 50 μM): significantly inhibited
- inhibition of Kv3.4 ([2]; 250 μM): almost complete inhibition
- mean inhibition at 0 mV relative to +50 mV [2]: 2 fold
